Laboratory results: patent publication US12263139B2, “Use of cannabidiol in the treatment of tuberous sclerosis complex” (Jazz Pharmaceuticals Research UK Limited, priority 2017, dated 2025)

Columns and labels:
Miapaca = assay: Drug combination assay (MTT, CalcuSyn) of Rad001 and CBD in Miapaca; format: cell-based, Homo sapiens
Procedure: For the study of the synergism between Rad001 and CBD on pancreatic cell lines Miapaca was tested, the cells were seeded in 96-multiwell plates at the density of 3.8 10^3 cells/well. After 24 hr incubation at 37° C., the cells were treated with different concentrations of Rad001 and CBD. Different molar ratios between two drugs in different sequences of administration were tested, (Rad001 for 48 h and CBD for 72 h or Rad001 for 72 h and CBD for 48 h and in co-administration for 72 h.
The proliferative response was estimated by colorimetric 3-(4,5 di-methylthiazol-2-yl)-2,5-diphenyltetrazolium bromide (MIT) test. MTT conversion to formazan by metabolically viable cells was monitored by spectrophotometer at an optical density of 570 nm. Each data point represents the average of three separate experiments with each experiment containing four wells. Drug combination studies were based on concentration-effect curves generated as a plot of the fraction of unaffected (surviving) cells versus drug concentration after treatment.
To explore the relative contribution of each agent to the synergism equi-active doses of […] were tested (IC50). Assessment of synergy was performed quantitating drug interaction by Calcusyn computer program (Biosoft, Ferguson, MO). Combination index (CI) values of <1, 1, and >1 indicate synergy, additivity and antagonism, respectively.
Dose reduction index (DRI) representing the measure of how much the dose of each drug in a combination may be reduced at a given effect level compared with the doses of each drug alone.
The effects of the pharmacological combination between CBD and RAD001 on the proliferation MIAPACA cell lines, using MTT assay were studied. The data obtained were processed with dedicated program, CalcuSyn (Chou and Talalay, Biosoft, Oregon, USA), which measures synergism.
The specific contribution of CBD and Rad001 on the cytotoxic effect of the combination of drugs was analyzed by calculating the potentiation factor (PF) defined as the ratio of the IC50 of either CBD or Rad001 alone to the IC50 of CBD and Rad001 in combination. A higher PF indicates a greater cytotoxicity.

[1] = stomatitis, infections, rash, fatigue, diarrhoea, oedema, abdominal pain, nausea, fever, asthenia, cough, headache, decreased appetite; cited from earlier work

IC50 (Miapaca; Homo sapiens, MIA PaCa-2, Miapaca, 50% effect level, read-out: Dose of drug alone): 2600 nM
Structure (SMILES): CO[C@H]1C[C@@H]2CC[C@@H](C)[C@@](O)(O2)C(=O)C(=O)N2CCCC[C@H]2C(=O)O[C@H]([C@H](C)C[C@@H]2CC[C@@H](OCCO)[C@H](OC)C2)CC(=O)[C@H](C)/C=C(\C)[C@@H](O)[C@@H](OC)C(=O)[C@H](C)C[C@H](C)/C=C/C=C/C=C/1C [Rad001, Everolimus, reference compound]
DRI50 (Miapaca; Miapaca, Rad/CBD combination, dose reduction index): Rad 2.1
potentiation factor (PF) (Miapaca; ratio of IC50 alone to IC50 of CBD and Rad001 in combination): 4
incidence of most common adverse reactions [1]: ≥ 30%
